Source: patent US20210015098A1, “MOLECULES HAVING PESTICIDAL UTILITY, AND INTERMEDIATES, COMPOSITIONS, AND PROCESSES, RELATED THERETO” (DOW AGROSCIENCES LLC, priority 2018, published 2021)

How the values were obtained:
Type in all cases: in vivo
[1] = test system: Green Peach Aphid (Myzus persicae, MYZUPE); assay: Bioassays on Green Peach Aphid (GPA), foliar spray on cabbage seedlings; conditions: for GPA (rating): Green Peach Aphid, Table ABC Biological Results
Method: Certain molecules disclosed in this document were tested against GPA using procedures described in the following example. In the reporting of the results, the “GPA & YFM Rating Table” was used (See Table Section).
Cabbage seedlings grown in 3-inch pots, with 2-3 small (3-5 cm) true leaves, were used as test substrate. The seedlings were infested with 20-50 GPA (wingless adult and nymph stages) one day prior to chemical application. Four pots with individual seedlings were used for each treatment. Test molecules (2 mg) were dissolved in 2 mL of acetone/methanol (1:1) solvent, forming stock solutions of 1000 ppm test molecule. The stock solutions were diluted 5× with 0.025% Tween 20 in water to obtain the solution at 200 ppm test molecule. A hand-held aspirator-type sprayer was used for spraying a solution to both sides of […] leaves until runoff. Reference plants (solvent check) were sprayed with the diluent only containing 20% by volume of acetone/methanol (1:1) solvent. Treated plants were held in a holding room for three days at approximately 25° C. and ambient relative humidity (RH) prior to grading. Evaluation was conducted by counting the number of live aphids per plant under a microscope. Percent control was measured using Abbott's correction formula (W. S. Abbott, “A Method of Computing the Effectiveness of an Insecticide” J. Econ. Entomol. 18 (1925), pp. 265-267) as follows. Corrected % Control=100*(X−Y)/X where X=No. of live aphids on solvent check plants and Y=No. of live aphids on treated plants. The results are indicated in the table entitled “Table ABC: Biological Results” (See Table Section).

[2] = test system: Yellow Fever Mosquito (Aedes aegypti, AEDSAE)
Method: Certain molecules disclosed in this document were tested against YFM using procedures described in the following paragraph. In the reporting of the results, the “GPA & YFM Rating Table” was used (See Table Section).
Master plates containing 400 μg of a molecule dissolved in 100 μL of dimethyl sulfoxide (DMSO) (equivalent to a 4000 ppm solution) are used. A master plate of assembled molecules contains 15 μL per well. To this plate, 135 μL of a 90:10 water/acetone mixture is added to each well. A robot (Biomek® NXP Laboratory Automation Workstation) is programmed to dispense 15 μL aspirations from the master plate into an empty 96-well shallow plate (“daughter” plate). There are 6 reps (“daughter” plates) created per master. The created “daughter” plates are then immediately infested with YFM larvae.
The day before plates are to be treated, mosquito eggs are placed in Millipore water containing liver powder to begin hatching (4 g into 400 mL). After the “daughter” plates are created using the robot, they are infested with 220 μL of the liver powder/larval mosquito mixture (about 1 day-old larvae). After plates are infested with mosquito larvae, a non-evaporative lid is used to cover the plate to reduce drying. Plates are held at room temperature for 3 days prior to grading. After 3 days, each well is observed and scored based on mortality. The results are indicated in the table entitled “Table ABC: Biological Results” (See Table Section).

[3] = test system: Cabbage Looper (Trichoplusia ni, TRIPNI); assay: Bioassays on Cabbage Looper (CL), 128-well diet tray assay; conditions: for pest or weed control at 50 µg/cm2: Cabbage Looper, Table ABC Biological Results, read-out: CL (rating)
Procedure, shortened: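 One to five second-instar larvae per well on artificial diet surface-treated with 50 μg/cm^2 test molecule (applied in 90:10 acetone-water, dried). Held 5–7 days at 25° C, 14:10 light-dark; percent mortality recorded per well and averaged over eight wells.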

[4] = test system: Beet Armyworm (Spodoptera exigua, LAPHEG); assay: Bioassays on Beet Armyworm (BAW), 128-well diet tray assay; conditions: for pest or weed control at 50 µg/cm2: Beet Armyworm, Table ABC Biological Results, read-out: BAW (rating)
Procedure, shortened: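 Larvae at second instar are exposed on dried, compound-treated diet (50 μg/cm^2, delivered in 90:10 acetone-water) in eight replicate wells. After five to seven days at 25° C., 14:10 light-dark, percent mortality in each well is scored and the eight wells averaged.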

For `Nc1c(F)ccc(NC(=O)c2cc(NC(=O)[C@H]3[C@H](c4cccc(C(F)(F)F)c4)C3(Cl)Cl)ccc2Cl)c1F` [DP6, N-(3-Amino-2,4-difluorophenyl)-2-chloro-5-((1R,3R)-2,2-dichloro-3-(3-(trifluoromethyl)phenyl)cyclopropane-1-carboxamido)benzamide], the mortality at 200 ppm ([1]; Myzus persicae, 72 h, 200 ppm foliar spray on cabbage seedlings, three days, Abbott corrected % control, read-out: GPA % Control (or Mortality) rating) was 80 to 100%, the “YFM % Control (or Mortality) rating” value ([2]; about 1 day-old larvae, 96-well plate, room temperature, 3 days) was “B (More than 0-Less than 80)” and the mortality at 50 µg/cm2 ([3]; 168 h, 50 μg/cm^2 on artificial diet, second instar larvae, 25° C., five to seven days, read-out: CL % Control (or Mortality) rating) was 50 to 100%. The mortality at 50 µg/cm2 ([4]; 168 h, 50 μg/cm^2 on artificial diet, second instar larvae, 25° C., five to seven days, read-out: BAW % Control (or Mortality) rating) was 50 to 100%.

`C=CCSCC(=O)Nc1c(F)ccc(NC(=O)c2cc(NC(=O)[C@H]3[C@H](c4ccc(F)c(C(F)(F)F)c4)C3(Cl)Cl)ccc2Cl)c1F` [F3, N-(3-(2-(Allylthio)acetamido)-2,4-difluorophenyl)-2-chloro-5-((1R,3R)-2,2-dichloro-3-(4-fluoro-3-(trifluoromethyl)phenyl)cyclopropane-1-carboxamido)benzamide] was tested, and the “GPA (rating)” value [1] was “B (More than 0-Less than 80)”, the pest or weed control at 50 µg/cm2 [3] was 50 to 100% and the pest or weed control at 50 µg/cm2 [4] was 50 to 100%.

`CC[S+]([O-])C(C)C(=O)Nc1c(F)ccc(NC(=O)c2cc(NC(=O)[C@H]3[C@H](c4ccc(F)c(C(F)(F)F)c4)C3(Cl)Cl)ccc2Cl)c1F` (stereo partly drawn) [F34, 2-chloro-5-((R,3R)-2,2-dichloro-3-(4-fluoro-3-(trifluoromethyl)phenyl)cyclopropane-1-carboxamido)-N-(3-(2-(ethylsulfinyl)propanamido)-2,4-difluorophenyl)benzamide] was tested, and the “GPA (rating)” value [1] was “B (More than 0-Less than 80)”, the “YFM (rating)” value ([2]; Yellow Fever Mosquito, Table ABC Biological Results) was “A (80-100)” and the pest or weed control at 50 µg/cm2 [3] was 50 to 100%. It also gave a pest or weed control at 50 µg/cm2 [4] of 50 to 100%.
